Measured values published in PubChem BioAssay AID296 (DTP/NCI, 2004).
“And” between values parts separate entries of the source, which are not always exact repeats. Equal entries are not always repeated. Records with an inconclusive call do not appear.

Test system: MX-1 breast xenograft, nude mice, tumor weight T/C
Assay: NCI In Vivo Anticancer Drug Screen. Data for tumor model Human Mammary Carcinoma MX-1 Xenograft (intrarenal inoculation) in NU/NU Swiss (nude) mice
Conditions: endpoint: mean tumor weight change, higher = larger tumour
In short: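 Activity is given as a ratio, with each measurement in the compound-treated arm divided by the matching measurement in vehicle-dosed controls. Tumour size or survival serves as the measured parameter.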

[1] = dose: 25.0 mg/kg/injection, schedule: Q01DX010 (sc), vehicle: saline with Tween-80
[2] = dose: 50.0 mg/kg/injection, schedule: Q01DX010 (sc), vehicle: saline with Tween-80
[3] = dose: 100.0 mg/kg/injection, schedule: Q01DX010 (sc), vehicle: saline with Tween-80
[4] = dose: 200.0 mg/kg/injection, schedule: Q01DX010 (sc), vehicle: saline with Tween-80

SMILES: Cc1cc(NCCCCCCNc2cc(C)nc3cc(N(C)C)ccc23)c2ccc(N(C)C)cc2n1
- T/C (dose: 37.5 mg/kg/injection, schedule: Q04DX003 (sc), vehicle: distilled water + Tween-80 + alcohol): 34 % of control
- T/C (dose: 75.0 mg/kg/injection, schedule: Q04DX003 (sc), vehicle: distilled water + Tween-80 + alcohol): 49 % of control
- T/C (dose: 150.0 mg/kg/injection, schedule: Q04DX003 (sc), vehicle: distilled water + Tween-80 + alcohol): 49 % of control
- T/C (dose: 300.0 mg/kg/injection, schedule: Q04DX003 (sc), vehicle: distilled water + Tween-80 + alcohol): 30 % of control

SMILES: CC[C@@]1(O)C(=O)OCc2c1cc1n(c2=O)Cc2cc3ccccc3nc2-1
- T/C (dose: 1.0 mg/kg/injection, schedule: Q04DX003 (sc), vehicle: saline with Tween-80): 100 % of control
- T/C (dose: 2.0 mg/kg/injection, schedule: Q04DX003 (sc), vehicle: saline with Tween-80): 58 % of control
- T/C (dose: 4.0 mg/kg/injection, schedule: Q04DX003 (sc), vehicle: saline with Tween-80): 23 % of control
- T/C (dose: 8.0 mg/kg/injection, schedule: Q04DX003 (sc), vehicle: saline with Tween-80): 11 % of control

SMILES: N[C@H](C(=O)O)[C@@H]1CC(Cl)=NO1
- T/C (dose: 4.0 mg/kg/injection, schedule: Q01DX010 (sc), vehicle: suspension in saline): -87 % of control
- T/C (dose: 4.0 mg/kg/injection, schedule: Q02DX005 (sc), vehicle: saline): -33 % of control
- T/C (dose: 4.0 mg/kg/injection, schedule: Q04DX003 (sc), vehicle: saline): 52 % of control
- T/C (dose: 8.0 mg/kg/injection, schedule: Q01DX010 (sc), vehicle: saline): -100 % of control and -89 % of control and -76 % of control
- T/C (dose: 8.0 mg/kg/injection, schedule: Q01DX010 (sc), vehicle: suspension in saline): -86 % of control
- T/C (dose: 8.0 mg/kg/injection, schedule: Q02DX005 (sc), vehicle: saline): -59 % of control
- T/C (dose: 8.0 mg/kg/injection, schedule: Q04DX003 (sc), vehicle: saline): 25 % of control
- T/C (dose: 16.0 mg/kg/injection, schedule: Q01DX010 (sc), vehicle: suspension in saline): -82 % of control
- T/C (dose: 16.0 mg/kg/injection, schedule: Q02DX005 (sc), vehicle: saline): -31 % of control
- T/C (dose: 16.0 mg/kg/injection, schedule: Q04DX003 (sc), vehicle: saline): 7 % of control
- T/C (dose: 32.0 mg/kg/injection, schedule: Q01DX010 (sc), vehicle: suspension in saline): -90 % of control
- T/C (dose: 32.0 mg/kg/injection, schedule: Q04DX003 (sc), vehicle: saline): 5 % of control

SMILES: COc1ccc2c(c1)CCn1c(C)c(COC(=O)NC(C)C)c(COC(=O)NC(C)C)c1-2
- T/C (dose: 150.0 mg/kg/injection, schedule: Q04DX003 (sc), vehicle: distilled water + Tween-80): 6 % of control
- T/C (dose: 300.0 mg/kg/injection, schedule: Q04DX003 (sc), vehicle: distilled water + Tween-80): 3 % of control
- T/C (dose: 600.0 mg/kg/injection, schedule: Q04DX003 (sc), vehicle: distilled water + Tween-80): -100 % of control
- T/C (dose: 1200.0 mg/kg/injection, schedule: Q04DX003 (sc), vehicle: distilled water + Tween-80): -100 % of control

SMILES: CS(=O)(=O)OCCN(CCOS(C)(=O)=O)c1ccc(C=Nc2ccc(-c3csc(COc4ccccc4)n3)cc2)cc1
- T/C (dose: 50.0 mg/kg/injection, schedule: Q01DX010 (sc), vehicle: Klucel (hydroxypropylcellulose) (HPC)): 37 % of control
- T/C (dose: 100.0 mg/kg/injection, schedule: Q01DX010 (sc), vehicle: Klucel (hydroxypropylcellulose) (HPC)): -18 % of control
- T/C (dose: 200.0 mg/kg/injection, schedule: Q01DX010 (sc), vehicle: Klucel (hydroxypropylcellulose) (HPC)): -84 % of control

SMILES: CN(C)[C@@H]1C(=O)C(C(=O)NCN2CCN(C(=N)N=C(N)N)CC2)=C(O)[C@@]2(O)C(=O)C3=C(O)c4c(O)cccc4[C@@](C)(O)[C@H]3C[C@@H]12
- T/C (dose: 2.5 mg/kg/injection, schedule: Q04DX003 (ip), vehicle: suspension in saline): 100 % of control
- T/C (dose: 5.0 mg/kg/injection, schedule: Q04DX003 (ip), vehicle: suspension in saline): 28 % of control

SMILES: COC1=CC(=O)N(C(=O)C2CSC(C(CO)NC(=O)c3csc(/C=N/O)n3)=N2)C1 (stereo unspecified)
- T/C (dose: 150.0 mg/kg/injection, schedule: Q04DX003 (sc), vehicle: Klucel (hydroxypropylcellulose) (HPC)): 79 % of control
- T/C (dose: 300.0 mg/kg/injection, schedule: Q04DX003 (sc), vehicle: Klucel (hydroxypropylcellulose) (HPC)): 81 % of control
- T/C (dose: 600.0 mg/kg/injection, schedule: Q04DX003 (sc), vehicle: Klucel (hydroxypropylcellulose) (HPC)): 95 % of control

SMILES: COc1cccc2c1C(=O)c1c(O)c3c(c(O)c1C2=O)C[C@@](O)(C(=O)CO)C[C@@H]3OC1CC(OC(C)=O)C(OC(C)=O)C(C)O1 (stereo partly specified)
- T/C (dose: 6.25 mg/kg/injection, schedule: Q01DX010 (sc), vehicle: distilled water + Tween-80): 82 % of control
- T/C (dose: 12.5 mg/kg/injection, schedule: Q01DX010 (sc), vehicle: distilled water + Tween-80): 96 % of control

SMILES: O=C1c2c(O)ccc(O)c2C(=O)c2c(NCCNCCO)ccc(NCCNCCO)c21
- T/C (dose: 0.5 mg/kg/injection, schedule: Q01DX010 (sc), vehicle: acid diluted with saline): 40 % of control
- T/C (dose: 2.0 mg/kg/injection, schedule: Q01DX010 (sc), vehicle: acid diluted with saline): 62 % of control
- T/C (dose: 2.5 mg/kg/injection, schedule: Q04DX003 (sc), vehicle: other): 59 % of control
- T/C (dose: 2.5 mg/kg/injection, schedule: Q04DX003 (sc), vehicle: water): 28 % of control
- T/C (dose: 5.0 mg/kg/injection, schedule: Q04DX003 (sc), vehicle: other): 34 % of control
- T/C (dose: 5.0 mg/kg/injection, schedule: Q04DX003 (sc), vehicle: water): 9 % of control and 29 % of control
- T/C (dose: 10.0 mg/kg/injection, schedule: Q04DX003 (sc), vehicle: other): 8 % of control
- T/C (dose: 10.0 mg/kg/injection, schedule: Q04DX003 (sc), vehicle: water): 6 % of control

SMILES: C=C1C(=O)OCC1C(=O)O (stereo unspecified)
- T/C (dose: 50.0 mg/kg/injection, schedule: Q04DX003 (sc), vehicle: suspension in saline): 74 % of control
- T/C (dose: 100.0 mg/kg/injection, schedule: Q04DX003 (sc), vehicle: suspension in saline): 94 % of control
- T/C (dose: 200.0 mg/kg/injection, schedule: Q04DX003 (sc), vehicle: suspension in saline): 50 % of control

SMILES: CN(C)CCCNc1c2ccccc2nc2cccc([N+](=O)[O-])c12
- T/C (dose: 0.37 mg/kg/injection, schedule: Q04DX003 (sc), vehicle: saline): 78 % of control

SMILES: S=C=NCCc1ccccc1
- T/C [1]: 161 % of control
- T/C [2]: 156 % of control
- T/C [3]: 72 % of control
- T/C [4]: 113 % of control

SMILES: CC[N+](CC)(CC)CC
- T/C (dose: 1.5 mg/kg/injection, schedule: Q01DX010 (sc), vehicle: saline with Tween-80): 65 % of control
- T/C (dose: 3.0 mg/kg/injection, schedule: Q01DX010 (sc), vehicle: saline with Tween-80): 103 % of control

SMILES: C/C(=N\NC(N)=O)c1cccc(/C(C)=N/NC(N)=O)n1
- T/C (dose: 600.0 mg/kg/injection, schedule: Q04DX003 (sc), vehicle: saline with Tween-80): 98 % of control
- T/C (dose: 1200.0 mg/kg/injection, schedule: Q04DX003 (sc), vehicle: saline with Tween-80): 74 % of control

SMILES: O=c1cnn(C2OC(CO)C(O)C2O)c(=O)[nH]1 (stereo unspecified)
- T/C (dose: 200.0 mg/kg/injection, schedule: Q01DX010 (sc), vehicle: saline): 79 % of control
- T/C (dose: 400.0 mg/kg/injection, schedule: Q01DX010 (sc), vehicle: saline): 77 % of control

SMILES: O=c1nc(Oc2ccccc2)nc2ncccn12
- T/C [1]: 100 % of control
- T/C [2]: 120 % of control
- T/C [3]: 42 % of control
- T/C [4]: 46 % of control

SMILES: CC(=O)Oc1c[nH]c(=O)[nH]c1=O
- T/C (dose: 100.0 mg/kg/injection, schedule: Q04DX003 (sc), vehicle: distilled water + Tween-80): 117 % of control
- T/C (dose: 400.0 mg/kg/injection, schedule: Q04DX003 (sc), vehicle: distilled water + Tween-80): 97 % of control
- T/C (dose: 800.0 mg/kg/injection, schedule: Q04DX003 (sc), vehicle: distilled water + Tween-80): 95 % of control
- T/C (dose: 1600.0 mg/kg/injection, schedule: Q04DX003 (sc), vehicle: distilled water + Tween-80): 58 % of control

SMILES: CS(=O)(=O)OCCN(CCOS(C)(=O)=O)c1ccc(C=O)cc1
- T/C (dose: 25.0 mg/kg/injection, schedule: Q01DX010 (sc), vehicle: saline): -67 % of control and -51 % of control

SMILES: CC1=C(/C=C/C(C)=C/C=C/C(C)=C/CO)C(C)(C)CCC1
- T/C (dose: 200.0 mg/kg/injection, schedule: Q04DX003 (sc), vehicle: saline with Tween-80): 89 % of control
- T/C (dose: 400.0 mg/kg/injection, schedule: Q04DX003 (sc), vehicle: saline with Tween-80): 112 % of control
- T/C (dose: 800.0 mg/kg/injection, schedule: Q04DX003 (sc), vehicle: saline with Tween-80): 84 % of control
- T/C (dose: 1600.0 mg/kg/injection, schedule: Q04DX003 (sc), vehicle: saline with Tween-80): 96 % of control

SMILES: CC[C@]1(O)C[C@H]2CN(CCc3c([nH]c4ccccc34)[C@@](C(=O)OC)(c3cc4c(cc3OC)N(C=O)[C@H]3[C@@](O)(C(=O)OC)[C@H](OC(C)=O)[C@]5(CC)C=CCN6CC[C@]43[C@@H]65)C2)C1
- T/C (dose: 0.5 mg/kg/injection, schedule: Q01DX010 (sc), vehicle: saline): -100 % of control and -81 % of control
- T/C (dose: 1.0 mg/kg/injection, schedule: Q01DX010 (sc), vehicle: saline): -99 % of control
